How the values were obtained:
Format in all cases: biochemical
VEGFR2 = target: T1, VEGFR2 (Homo sapiens, UniProt P35968); test: Z'-LYTE in vitro enzyme activity assay, VEGFR2; details: 100 μM ATP, 60 minutes, room temperature; read-out: IC50 detected by Z'-LYTE, VEGFR2
T1 construct: purchased Life technology
Method: (§1) The enzyme activity was measured by Z′-LYTE™ Detection Kinase Assay. The IC50 value of the compounds was used as an index to evaluate the inhibitory effect of the compounds on VEGFR2, FGFR1 and PDGFRB.
(§2) Recombinant human VEGFR2 and FGFR1 proteases were purchased from Life technology, PDGFRB Protease was purchased from Millipore.
(§3) Z-LYTE™ Kit Tyr1 and Tyr4 were purchased from Life technology. Multi-microplate reader, Envision (PerkinElmer) read board was used.
(§4) The test compounds were diluted 3 times with a concentration gradient, the final concentration was from 10 μM to 0.17 nM with a total of 11 concentrations, and each concentration had two parallel holes; the content of DMSO in the assay was 1%.
3 nM VEGFR2 protein kinase, 2 μM Tyr1 peptide, 100 μM ATP, 50 mM HEPES (pH 7.5), 10 mM MgCl2, 1 mM EGTA, 0.01% BRIJ-35. The detector plate was Black Proxiplate 384-Plus plate (PerkinElmer), the reaction was performed at room temperature for 60 minutes, and the reaction system was 10 μl.
(§5) The reaction was stopped by adding 5 μl of DV reagent B (1:128) to the kinase reaction solution and incubated at 23° C. for 60 minutes. The Envision instrument was used to read the plate.
(§6) The data was converted to phosphorylation rate and inhibition rate and the 4 parameter curve fitting (Model 205 in XLFIT5, iDBS) was used to get IC50 data of the compounds.

FGFR1 = target: T2, FGFR1 (Homo sapiens, UniProt P11362); test: Z'-LYTE in vitro enzyme activity assay, FGFR1; details: 25 μM ATP, 60 minutes, room temperature; read-out: IC50 detected by Z'-LYTE, FGFR1
T2 construct: purchased Life technology
T2 sequence (P11362 22-822): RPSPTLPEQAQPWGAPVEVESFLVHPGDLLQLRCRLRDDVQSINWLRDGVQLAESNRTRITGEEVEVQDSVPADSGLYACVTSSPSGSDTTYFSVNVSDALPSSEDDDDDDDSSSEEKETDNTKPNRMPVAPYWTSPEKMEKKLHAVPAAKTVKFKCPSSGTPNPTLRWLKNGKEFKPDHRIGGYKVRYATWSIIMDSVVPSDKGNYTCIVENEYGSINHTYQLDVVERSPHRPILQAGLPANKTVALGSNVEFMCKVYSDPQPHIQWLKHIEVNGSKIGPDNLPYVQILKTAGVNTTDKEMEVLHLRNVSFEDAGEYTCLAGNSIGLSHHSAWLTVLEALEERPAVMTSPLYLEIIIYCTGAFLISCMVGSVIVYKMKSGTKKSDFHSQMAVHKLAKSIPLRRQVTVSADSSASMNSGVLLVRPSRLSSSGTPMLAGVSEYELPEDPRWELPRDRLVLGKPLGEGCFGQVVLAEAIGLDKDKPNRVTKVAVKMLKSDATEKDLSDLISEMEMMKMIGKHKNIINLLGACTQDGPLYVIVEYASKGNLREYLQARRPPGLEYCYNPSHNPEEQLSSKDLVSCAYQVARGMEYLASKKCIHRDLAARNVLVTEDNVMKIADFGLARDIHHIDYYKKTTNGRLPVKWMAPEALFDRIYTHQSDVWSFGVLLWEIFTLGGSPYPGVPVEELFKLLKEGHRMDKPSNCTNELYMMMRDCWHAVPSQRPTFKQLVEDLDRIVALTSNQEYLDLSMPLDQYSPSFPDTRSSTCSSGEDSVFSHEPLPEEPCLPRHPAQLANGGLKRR
Method: as §1, §2, §3, §4
(§7) 1 nM FGFR1 protein kinase, 2 μM Tyr4 peptide, 25 μM ATP, 50 mM HEPES (pH 7.5), 10 mM MgCl2, 1 mM EGTA, 0.01% BRIJ-35, 2 mM MnCl2, 1 mM DTT. The detector plate was Black Proxiplate 384-Plus plate (PerkinElmer), the reaction was performed at room temperature for 60 minutes, and the reaction system was 10 μl.
as §5, §6

PDGFRB = target: T3, PDGFRB (Homo sapiens, UniProt P09619); test: Z'-LYTE in vitro enzyme activity assay, PDGFRB; details: 100 μM ATP, 60 minutes, room temperature; read-out: IC50 detected by Z'-LYTE, PDGFRB
T3 construct: purchased Millipore
T3 sequence (P09619 33-1106): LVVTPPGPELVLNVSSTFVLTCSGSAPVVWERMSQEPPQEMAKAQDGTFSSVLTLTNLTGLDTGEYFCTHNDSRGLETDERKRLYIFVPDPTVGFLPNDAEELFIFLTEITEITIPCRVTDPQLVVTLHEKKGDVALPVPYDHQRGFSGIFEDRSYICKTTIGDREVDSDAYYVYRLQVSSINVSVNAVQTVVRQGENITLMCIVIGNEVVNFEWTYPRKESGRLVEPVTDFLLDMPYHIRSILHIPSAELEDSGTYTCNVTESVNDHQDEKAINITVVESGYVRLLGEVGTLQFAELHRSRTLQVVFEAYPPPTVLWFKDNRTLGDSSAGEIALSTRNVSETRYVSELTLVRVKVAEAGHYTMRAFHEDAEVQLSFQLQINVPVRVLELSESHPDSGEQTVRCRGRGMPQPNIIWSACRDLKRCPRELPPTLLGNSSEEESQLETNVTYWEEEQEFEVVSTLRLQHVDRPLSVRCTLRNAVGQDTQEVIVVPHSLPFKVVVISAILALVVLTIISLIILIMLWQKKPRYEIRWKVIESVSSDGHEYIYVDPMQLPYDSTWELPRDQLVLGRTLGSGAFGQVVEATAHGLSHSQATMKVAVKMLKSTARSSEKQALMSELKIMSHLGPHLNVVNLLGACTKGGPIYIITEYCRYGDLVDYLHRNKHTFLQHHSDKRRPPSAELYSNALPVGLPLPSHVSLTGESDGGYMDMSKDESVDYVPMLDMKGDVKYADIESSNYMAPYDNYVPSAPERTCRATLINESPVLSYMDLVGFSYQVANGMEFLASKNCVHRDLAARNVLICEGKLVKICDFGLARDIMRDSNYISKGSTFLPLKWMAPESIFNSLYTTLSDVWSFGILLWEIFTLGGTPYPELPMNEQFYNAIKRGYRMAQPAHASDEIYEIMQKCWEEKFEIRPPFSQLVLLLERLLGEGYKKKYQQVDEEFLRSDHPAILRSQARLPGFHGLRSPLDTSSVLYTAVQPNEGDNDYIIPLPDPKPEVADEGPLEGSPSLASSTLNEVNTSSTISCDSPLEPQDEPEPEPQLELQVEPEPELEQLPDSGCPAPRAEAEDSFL
Method: as §1, §2, §3, §4
as §7, with “40 nM PDGFRB” for “1 nM FGFR1”, “40 nM PDGFRB protein kinase,” for “1 nM FGFR1 protein kinase,”, “Tyr4 peptide, 100 μM ATP,” for “Tyr4 peptide, 25 μM ATP,”
as §5, §6

T1 sequence (P35968 20-1356): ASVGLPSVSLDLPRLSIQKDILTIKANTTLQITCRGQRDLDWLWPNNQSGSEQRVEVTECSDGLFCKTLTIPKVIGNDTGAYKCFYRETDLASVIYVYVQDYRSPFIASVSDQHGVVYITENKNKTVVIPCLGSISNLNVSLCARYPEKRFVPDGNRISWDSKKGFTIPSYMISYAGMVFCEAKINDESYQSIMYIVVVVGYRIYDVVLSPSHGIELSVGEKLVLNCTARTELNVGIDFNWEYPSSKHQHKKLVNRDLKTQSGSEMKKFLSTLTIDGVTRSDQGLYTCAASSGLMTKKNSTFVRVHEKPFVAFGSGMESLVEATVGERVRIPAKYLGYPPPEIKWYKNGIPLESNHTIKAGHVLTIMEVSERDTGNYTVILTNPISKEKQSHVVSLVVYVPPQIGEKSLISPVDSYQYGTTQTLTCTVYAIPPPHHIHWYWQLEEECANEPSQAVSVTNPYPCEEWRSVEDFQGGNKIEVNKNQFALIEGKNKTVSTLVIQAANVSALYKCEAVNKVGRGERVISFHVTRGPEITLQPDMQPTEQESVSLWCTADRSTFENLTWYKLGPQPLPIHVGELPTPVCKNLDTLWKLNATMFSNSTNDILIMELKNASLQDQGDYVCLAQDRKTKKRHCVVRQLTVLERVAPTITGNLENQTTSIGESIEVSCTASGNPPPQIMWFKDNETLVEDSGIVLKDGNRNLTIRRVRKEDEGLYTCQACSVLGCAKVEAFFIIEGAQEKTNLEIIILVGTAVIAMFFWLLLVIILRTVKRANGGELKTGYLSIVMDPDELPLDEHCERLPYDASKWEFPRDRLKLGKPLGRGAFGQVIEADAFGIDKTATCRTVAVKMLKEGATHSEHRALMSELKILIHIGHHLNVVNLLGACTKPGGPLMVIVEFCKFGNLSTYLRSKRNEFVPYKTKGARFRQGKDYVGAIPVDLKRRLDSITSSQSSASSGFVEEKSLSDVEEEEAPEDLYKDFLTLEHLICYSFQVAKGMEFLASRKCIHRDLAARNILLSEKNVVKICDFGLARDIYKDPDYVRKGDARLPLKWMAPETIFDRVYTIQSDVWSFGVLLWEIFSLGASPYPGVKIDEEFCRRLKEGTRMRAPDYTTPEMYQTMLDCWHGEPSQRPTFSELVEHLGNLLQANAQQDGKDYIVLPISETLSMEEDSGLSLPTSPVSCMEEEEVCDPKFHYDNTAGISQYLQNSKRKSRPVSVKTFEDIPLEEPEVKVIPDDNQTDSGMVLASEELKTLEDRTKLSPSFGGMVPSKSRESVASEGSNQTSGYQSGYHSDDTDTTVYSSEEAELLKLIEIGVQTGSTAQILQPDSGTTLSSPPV

SMILES	IC50 (VEGFR2) [nM]	IC50 (FGFR1) [nM]	IC50 (PDGFRB) [nM]
COc1cc2nccc(Oc3ccc(NC(=S)Nc4ccc(Cl)c(F)c4)c(Cl)c3)c2cc1C(N)=O [Example 3]	200 to 1000	200 to 1000	200 to 1000
COc1cc2nccc(Oc3ccc(NC(=S)Nc4cc[nH]n4)c(Cl)c3)c2cc1C(N)=O [Example 4]	50 to 200	200 to 1000	200 to 1000
COc1cc2nccc(Oc3ccc(NC(=S)NCc4ccncc4)c(Cl)c3)c2cc1C(N)=O [Example 5]	50 to 200	200 to 1000	50 to 200
COc1cc2nccc(Oc3ccc(NC(=S)Nc4cccc(C(F)(F)F)c4)c(Cl)c3)c2cc1C(N)=O [Example 7]	50 to 200	200 to 1000	200 to 1000
COc1cc2nccc(Oc3ccc(NC(=S)NCc4ccc(Cl)cc4)c(Cl)c3)c2cc1C(N)=O [Example 9]	200 to 1000	200 to 1000	< 50
COc1cc2nccc(Oc3ccc(NC(=S)Nc4cccnc4)c(Cl)c3)c2cc1C(N)=O [Example 10]	50 to 200	200 to 1000	50 to 200
COc1cc2nccc(Oc3ccc(NC(=S)NCc4ccccn4)c(Cl)c3)c2cc1C(N)=O [Example 11]	200 to 1000	200 to 1000	50 to 200
COc1cc2nccc(Oc3ccc(NC(=S)NCCc4ccccc4)c(Cl)c3)c2cc1C(N)=O [Example 14]	200 to 1000	200 to 1000	50 to 200
COc1cc2nccc(Oc3ccc(NC(=S)NC4CCOCC4)c(Cl)c3)c2cc1C(N)=O [Example 15]	200 to 1000	200 to 1000	50 to 200
COc1cc2nccc(Oc3ccc(NC(=S)NCc4ccc(F)cc4)c(Cl)c3)c2cc1C(N)=O [Example 17]	200 to 1000	200 to 1000	50 to 200
COc1cc2nccc(Oc3ccc(NC(=S)NCCC#N)c(Cl)c3)c2cc1C(N)=O [Example 18]	200 to 1000	200 to 1000	200 to 1000
COc1cc2nccc(Oc3ccc(NC(=S)NCCN4CCOCC4)c(Cl)c3)c2cc1C(N)=O [Example 19]	200 to 1000	200 to 1000	< 50
COc1cc2nccc(Oc3ccc(NC(=S)NCc4cccnc4)c(Cl)c3)c2cc1C(N)=O [Example 20]	50 to 200	200 to 1000	< 50
COc1cc2nccc(Oc3ccc(NC(=S)N[C@@H](C)CO)c(Cl)c3)c2cc1C(N)=O [Example 22]	50 to 200	200 to 1000	50 to 200
COc1cc2nccc(Oc3ccc(NC(=S)NCCN(C)C)c(Cl)c3)c2cc1C(N)=O [Example 23]	200 to 1000	200 to 1000	50 to 200
COc1cc2nccc(Oc3ccc4c(c3)CCN4C(=S)NC3CC3)c2cc1C(N)=O [Example 24]	200 to 1000	200 to 1000	200 to 1000
Cc1c(OCC(C)O)cn2ncnc(Oc3ccc(NC(=S)NC4CC4)c(Cl)c3)c12 (centres unmarked) [Example 25]	200 to 1000	200 to 1000	200 to 1000
COc1cc2nccc(Oc3ccc4c(c3)CCCN4C(=S)NC3CC3)c2cc1C(N)=O [Example 26]	50 to 200	200 to 1000	200 to 1000
COc1cc2nccc(Oc3ccc(NC(=S)NC4CC(O)C4)c(Cl)c3)c2cc1C(N)=O (centres unmarked) [Example 27]	50 to 200	200 to 1000	50 to 200
COc1cc2nccc(Oc3ccc(NC(=S)NCCCO)c(Cl)c3)c2cc1C(N)=O [Example 29]	50 to 200	200 to 1000	50 to 200
COc1cc2nccc(Oc3ccc(NC(=S)NCC(C)(C)O)c(Cl)c3)c2cc1C(N)=O [Example 30]	200 to 1000	200 to 1000	200 to 1000
CCN(CC)CCOc1cc2nccc(Oc3ccc(NC(=S)NC4CC4)c(Cl)c3)c2cc1C(N)=O [Example 31]	200 to 1000	200 to 1000	200 to 1000
COc1cc2nccc(Oc3ccc(NC(=S)N4CCCC4)c(Cl)c3)c2cc1C(N)=O [Example 32]	< 50	200 to 1000	200 to 1000
COc1cc2nccc(Oc3ccc(NC(=O)NC(C)(C)C(F)(F)F)c(Cl)c3)c2cc1C(N)=O [Example 33]	200 to 1000	200 to 1000	50 to 200
COc1cc2nccc(Oc3ccc4c(c3)CCCN4C(=S)NCC(F)F)c2cc1C(N)=O [Example 34]	200 to 1000	200 to 1000	50 to 200

SMILES	IC50 (VEGFR2) [nM]	IC50 (FGFR1) [nM]	IC50 (PDGFRB) [nM]
COc1cc2nccc(Oc3ccc(NC(=S)N4CC(F)(F)C4)c(Cl)c3)c2cc1C(N)=O [Example 35]	< 50	50 to 200	50 to 200
COc1cc2nccc(Oc3ccc(NC(=O)NC(C)C(F)(F)F)c(Cl)c3)c2cc1C(N)=O (centres unmarked) [Example 36]	200 to 1000	200 to 1000	200 to 1000
COc1cc2nccc(Oc3ccc(NC(=S)NC4CC4)c(Cl)c3)c2cc1C(=O)NCC(F)F [Example 37]	< 50	200 to 1000	50 to 200
COc1cc2nccc(Oc3ccc(NC(=S)NC4CC4)c(Cl)c3)c2cc1C(=O)NCC(F)(F)F [Example 38]	50 to 200	200 to 1000	200 to 1000
CCN(CC)CCNC(=O)c1cc2c(Oc3ccc(NC(=S)NC4CC4)c(Cl)c3)ccnc2cc1OC [Example 39]	50 to 200	200 to 1000	50 to 200
CCN(CC)CCCNC(=O)c1cc2c(Oc3ccc(NC(=S)NC4CC4)c(Cl)c3)ccnc2cc1OC [Example 40]	50 to 200	200 to 1000	50 to 200
COc1cc2nccc(Oc3ccc(NC(=S)NC4CC4)c(C(F)(F)F)c3)c2cc1C(N)=O [Example 41]	< 50	200 to 1000	200 to 1000
COc1cc2nccc(Oc3ccc(NC(=S)NC4CC4)cc3C(F)(F)F)c2cc1C(N)=O [Example 42]	200 to 1000	200 to 1000	200 to 1000
COc1cc2nccc(Oc3ccc(NC(=S)NC4CC4)nc3)c2cc1C(N)=O [Example 43]	200 to 1000	200 to 1000	< 50
O=C1NCOc2cc3nccc(Oc4ccc(NC(=S)NC5CC5)c(Cl)c4)c3cc21 [Example 45]	200 to 1000	200 to 1000	200 to 1000
COc1cc2nccc(Oc3ccc(NC(=S)NC4CC4)c(Cl)c3)c2cc1C(=O)N(C)C [Example 47]	200 to 1000	200 to 1000	200 to 1000
COc1cc2nccc(Oc3ccc(NC(=S)NC4CC4)c(Cl)c3)c2cc1C(=O)N1CCCC1 [Example 48]	200 to 1000	200 to 1000	50 to 200
COc1cc2nccc(Oc3ccc(NC(=S)NC4CC4)c(Cl)c3)c2cc1C(=O)N1CCCCC1 [Example 49]	200 to 1000	200 to 1000	50 to 200
COc1cc2nccc(Oc3ccc(NC(=S)N4CCN(C)CC4)c(Cl)c3)c2cc1C(N)=O [Example 51]	200 to 1000	200 to 1000	50 to 200
NC(=O)c1ccn2ncc(Oc3ccc(NC(=O)NC4CC4)c(Cl)c3)c2c1 [Example 125]	200 to 1000		
Cc1c(OC[C@@H](C)O)cn2ncnc(Oc3ccc(NC(=O)NC4CC4)c(Cl)c3)c12 [Example 126]	< 50		
COc1cc2nccc(OCC3CC(NC(=O)NC4CC4)C3)c2cc1C(N)=O (centres unmarked) [Example 128]	200 to 1000		
COc1cc2nccc(OC3CC(NC(=O)NC4CC4)C3)c2cc1C(N)=O (centres unmarked) [Example 129]	200 to 1000		
CCOP(=O)(Cc1ccc(Oc2ccnc3cc(OC)c(C(N)=O)cc23)cc1Cl)NC1CC1 (centres unmarked) [Example 132]	200 to 1000		
COc1cc2nccc(Oc3ccc(CP(=O)(O)NC4CC4)c(Cl)c3)c2cc1C(N)=O [Example 133]	200 to 1000		
COc1cc2nccc(Oc3ccc(N/C(=C/[N+](=O)[O-])NC4CC4)c(Cl)c3)c2cc1C(N)=O [Example 134]	200 to 1000		
COc1cc2nccc(Oc3ccc(Nc4nc(=O)cc(C)[nH]4)c(Cl)c3)c2cc1C(N)=O [Example 135]	200 to 1000		
COc1cc2nccc(Oc3ccc4nc(Nc5ccc(Cl)c(F)c5)sc4c3)c2cc1C(N)=O [Example 159]	200 to 1000		
COc1cc2nccc(Oc3ccc(-c4c[nH]c(C(C)C)n4)c(Cl)c3)c2cc1C(N)=O [Example 179]	200 to 1000		
COc1cc2nccc(Oc3ccc4oc(C(=O)N5CCCC5)cc4c3)c2cc1C(N)=O [Example 192]	200 to 1000		

From patent publication US10654808B2, “Tyrosine kinase inhibitor and pharmaceutical composition comprising same” (GUANGDONG RAYNOVENT BIOTECH CO., LTD., priority 2015, dated 2020)
